Source: patent US5256685A, “Mitomycin derivatives” (Kyowa Hakko Kogyo Co., Ltd., priority 1991, dated 1993)

Test system: not listed separately
Test: Acute toxicity
Details: mouse, in vivo, iv; i.v. once, ddY mice, observed 14 days; Behrens-Kaerber's method
Method: A test compound was intravenously injected once to five ddY mice as one group. […] LD50 was calculated from the death rate of each group to which the test compound was administered according to the Behrens-Kaerber's method.

| SMILES | LD50 at 336 h |
| --- | --- |
| CO[C@@]12[C@H](COC(N)=O)C3=C(C(=O)C4=C(OC5=C(C4)C(=O)CCC5)C3=O)N1C[C@@H]1N[C@@H]12 [Compound 14] | 2.2 mg/kg |
| CO[C@@]12[C@H](COC(N)=O)C3=C(C(=O)C4=C(OC5=C(C4)C(=O)CC(C)(C)C5)C3=O)N1C[C@@H]1N[C@@H]12 [Compound 13] | 2.9 mg/kg |
| CCC1=C(N)C(=O)C2=C(C1=O)N1C[C@@H]3N[C@@H]3[C@]1(OC)[C@@H]2COC(N)=O [Compound 1, 6-demethyl-6-ethylmitomycin C] | 38 mg/kg |
| CO[C@@]12[C@H](COC(N)=O)C3=C(C(=O)C4=C(OC5=C(C4)C(=O)CC(C)C5)C3=O)N1C[C@@H]1N[C@@H]12 (single isomer, unassigned) [Compound 36] | 4.4 mg/kg |
| CCC1=C(OC)C(=O)C2=C(C1=O)N1C[C@@H]3N[C@@H]3[C@]1(OC)[C@@H]2COC(N)=O [Compound 15, 6-demethyl-6-ethylmitomycin A] | 8.2 mg/kg |
| CCC1=C(OC)C(=O)C2=C(C1=O)N1C[C@H]3[C@H](N3C)[C@]1(O)[C@H]2COC(N)=O (stereo partly drawn) [Compound 16, 6-demethyl-6-ethylmitomycin B] | 25 mg/kg |
| CCOC(=O)C1=C(C)OC2=C(C1)C(=O)C1=C(C2=O)[C@@H](COC(N)=O)[C@@]2(OC)[C@H]3N[C@H]3CN12 [Compound 12] | 5.2 mg/kg |
| CO[C@@]12[C@H](COC(N)=O)C3=C(C(=O)C(Cc4ccccc4)=C(N)C3=O)N1C[C@@H]1N[C@@H]12 [Compound 7, 6-benzyl-6-demethylmitomycin C] | > 50 mg/kg |
| CO[C@@]12[C@H](COC(N)=O)C3=C(C(=O)C(CC4=C(O)CC(C)(C)CC4=O)=C(N)C3=O)N1C[C@@H]1N[C@@H]12 [Compound 9] | 30 mg/kg |

Test system: Sarcoma 180 solid tumor
Test: Anti-tumor activity to sarcoma 180 solid tumor
Assay type: in vivo
Details: Mus musculus, Sarcoma-180, iv, 168 h; dose showing T/C=0.5 (tumor volume, 7 days after implantation); single i.v. injection 24 hours after s.c. implantation; male ddY mice
Method: Anti-tumor activity to sarcoma 180 solid tumor
5×10^6 Sarcoma 180 cells were abdominally implanted into a ddY mouse and the cells were collected from the ascites of the mouse 7 days after the implantation. The cells were washed once with a sterilized physiological saline solution and then suspended in a sterilized physiological saline solution to prepare a cell suspension of 5×10^7 cells/ml.
0.1 ml of the cell suspension was subcutaneously implanted into the right axillary space of male ddY mice weighing 20±2 g.
A test compound was dissolved in a physiological saline solution or a polyoxyethylene sorbitan monolaurate-containing physiological saline solution, and 0.1 to 0.2 ml of the solution was intravenously injected to 5 mice as one group 24 hours after the implantation of the tumor cells.
The anti-tumor activity of the test compound was determined by measuring the major axis (a) and the minor axis (b) of the tumor 7 days after the implantation of tumor cells, and the value of (a×b^2 /2), which corresponds to the volume of the tumor, was calculated. The intended anti-tumor activity is represented by a ratio of T/C, in which C indicates the tumor volume of mice of the control group to which no test compound was administered and T indicates the tumor volume of mice of the test group to which the test compound was administered. T/C at each dose given was plotted on the vertical axis and a dose is shown by a logarithmic scale on the horizontal axis. The relationship between the dose and T/C was determined to be a straight line by the least squares method. From the regression formula of the straight line thus obtained, the dose showing T/C=0.5 was calculated to give ED50.

| SMILES | ED50 |
| --- | --- |
| CO[C@@]12[C@H](COC(N)=O)C3=C(C(=O)C4=C(OC5=C(C4)C(=O)CCC5)C3=O)N1C[C@@H]1N[C@@H]12 [Compound 14] | 0.84 mg/kg |
| CO[C@@]12[C@H](COC(N)=O)C3=C(C(=O)C4=C(OC5=C(C4)C(=O)CC(C)(C)C5)C3=O)N1C[C@@H]1N[C@@H]12 [Compound 13] | 1.3 mg/kg |
| CCC1=C(N)C(=O)C2=C(C1=O)N1C[C@@H]3N[C@@H]3[C@]1(OC)[C@@H]2COC(N)=O [Compound 1, 6-demethyl-6-ethylmitomycin C] | 6.7 mg/kg |
| CO[C@@]12[C@H](COC(N)=O)C3=C(C(=O)C4=C(OC5=C(C4)C(=O)CC(C)C5)C3=O)N1C[C@@H]1N[C@@H]12 (single isomer, unassigned) [Compound 36] | 1.3 mg/kg |
| CCC1=C(OC)C(=O)C2=C(C1=O)N1C[C@@H]3N[C@@H]3[C@]1(OC)[C@@H]2COC(N)=O [Compound 15, 6-demethyl-6-ethylmitomycin A] | 2.8 mg/kg |
| CCC1=C(OC)C(=O)C2=C(C1=O)N1C[C@H]3[C@H](N3C)[C@]1(O)[C@H]2COC(N)=O (stereo partly drawn) [Compound 16, 6-demethyl-6-ethylmitomycin B] | 14 mg/kg |
| COc1ccc(C2CC(=O)C3=C(C2)OC2=C(C3)C(=O)C3=C(C2=O)[C@@H](COC(N)=O)[C@@]2(OC)[C@H]4N[C@H]4CN32)cc1 (single isomer, unassigned) [Compound 38] | 12 mg/kg |
| CCOC(=O)C1=C(C)OC2=C(C1)C(=O)C1=C(C2=O)[C@@H](COC(N)=O)[C@@]2(OC)[C@H]3N[C@H]3CN12 [Compound 12] | 0.7 mg/kg |
| CO[C@@]12[C@H](COC(N)=O)C3=C(C(=O)C(Cc4ccccc4)=C(N)C3=O)N1C[C@@H]1N[C@@H]12 [Compound 7, 6-benzyl-6-demethylmitomycin C] | 18 mg/kg |
| CO[C@@]12[C@H](COC(N)=O)C3=C(C(=O)C4=C(OC5=C(C4)C(=O)CC(C)C5)C3=O)N1C[C@@H]1N[C@@H]12 (stereo partly drawn) [Compound 37] | 0.93 mg/kg |
| CO[C@@]12[C@H](COC(N)=O)C3=C(C(=O)C4=C(OC(C)=C(C(=O)c5ccccc5)C4)C3=O)N1C[C@@H]1N[C@@H]12 [Compound 30] | 5.8 mg/kg |
| CO[C@@]12[C@H](COC(N)=O)C3=C(C(=O)C(CC4=C(O)CC(C)(C)CC4=O)=C(N)C3=O)N1C[C@@H]1N[C@@H]12 [Compound 9] | 8 mg/kg |

Test system: HeLaS3 cells
Test: Growth inhibition test on HeLaS3 cells
Assay type: cell-based
Details: Homo sapiens, HeLa S3, 1 h exposure, then 72 h incubation at 37° C., Neutral Red
Method: Growth inhibition test on HeLaS3 cells
HeLaS3 cells were suspended in an MEM medium containing 10% fetal calf serum and 2 mM glutamine at a density of 3×10^4 cells/ml, and 0.1 ml of the cell suspension was put into each well of a 96-well microtiter plate.
After culturing at 37° C. overnight in a carbon dioxide gas incubator, 0.05 ml each of a test compound appropriately diluted with the medium was added to each well. The cells were further cultured for an hour in the carbon dioxide gas incubator, and the culture supernatant was removed. The residue was washed once with a phosphate buffered saline [PBS (-)] and 0.1 ml each of a fresh medium was added to each well. The cells were further incubated at 37° C. for 72 hours in the carbon dioxide gas incubator. After removal of the culture supernatant, 0.1 ml each of the culture medium containing 0.02% Neutral Red was added to each well, and the cells were further incubated at 37° C. for an hour in the carbon dioxide gas incubator to stain the cells.
After removal of the culture supernatant, each well was washed once with a physiological saline, and the dye was extracted with 0.001N HCl/30% ethanol. Absorbance of the extract at 550 nm was measured with a microplate reader. The cell growth inhibition percentage was calculated according to the following equation from the absorbance of the extract of the cells treated with the test compound in various concentrations and that of the untreated cells. [formula]
From the cell growth inhibition percentage thus obtained, the concentration of the test compound which inhibits cell growth by 50%, i.e. IC50 value, was determined.

| SMILES | IC50 |
| --- | --- |
| CO[C@@]12[C@H](COC(N)=O)C3=C(C(=O)C4=C(OC5=C(C4)C(=O)CCC5)C3=O)N1C[C@@H]1N[C@@H]12 [Compound 14] | 65 µM |
| CO[C@@]12[C@H](COC(N)=O)C3=C(C(=O)C4=C(OC5=C(C4)C(=O)CC(C)(C)C5)C3=O)N1C[C@@H]1N[C@@H]12 [Compound 13] | 84 µM |
| CCC1=C(N)C(=O)C2=C(C1=O)N1C[C@@H]3N[C@@H]3[C@]1(OC)[C@@H]2COC(N)=O [Compound 1, 6-demethyl-6-ethylmitomycin C] | 3000 µM |
| CCOC(=O)C(C)(CC1=C(OC)C(=O)C2=C(C1=O)N1C[C@@H]3N[C@@H]3[C@]1(OC)[C@@H]2COC(N)=O)C(C)=O (stereo partly drawn) [Compound 10] | 1600 µM |
| CO[C@@]12[C@H](COC(N)=O)C3=C(C(=O)C(Cc4ccccc4)=C(N)C3=O)N1C[C@@H]1N[C@@H]12 [Compound 7, 6-benzyl-6-demethylmitomycin C] | 2300 µM |
| CO[C@@]12[C@H](COC(N)=O)C3=C(C(=O)C(CC4=C(O)CC(C)(C)CC4=O)=C(N)C3=O)N1C[C@@H]1N[C@@H]12 [Compound 9] | 1500 µM |
